Measured values published in patent US20090105220A1, “PROCESS FOR THE PREPARATION OF NONPEPTIDE SUBSTITUTED SPIROBENZOAZEPINE DERIVATIVES” (priority 2003, published 2009).
Counter-ions that a name gives are not always drawn.

| Structure (SMILES) | melting point |
| --- | --- |
| O=C(O)C1=C[C@@]2(CC1)CCN(C(=O)c1ccc(NC(=O)c3ccccc3-c3ccccc3)cc1)c1ccccc1C2 | 263 to 265 °C |
| CN(C)CCNC(=O)C1=C[C@@]2(CC1)CCN(C(=O)c1ccc(NC(=O)c3ccccc3-c3ccccc3)cc1)c1ccccc1C2.O=C(O)c1ccccc1 | 180 to 185 °C (dec.) |
| CN(C)CCNC(=O)C1=C[C@@]2(CC1)CCN(C(=O)c1ccc(NC(=O)c3ccccc3F)cc1)c1ccccc1C2 (as salt: phosphate) | 148 to 158 °C (dec.) |
